# Target: T1, Aβ1-42 (Homo sapiens, UniProt P05067)
# T1 construct: human A81-42 monomers (UniProtKB-P05067, a.a. 672-713)
# Assay: Aβ aggregation inhibition test (Thioflavin T analysis)
# Type: biochemical
# Settings: 20 μM compound, 50 μM Aβ, 3 days; relative to control (100%)
# Method: Then, the compound was used diluted by using 6% DMSO (in DW) and used.
# Triflupromazine hydrochloride (triflupromazine used in all the examples below is triflupromazine hydrochloride) was dissolved to a concentration of 5 mM in DMSO. The compound was then used diluted with 6% DMSO (in DW).
# The Aβ solution was prepared by dissolving human A81-42 monomers (UniProtKB-P05067, a.a. 672-713) to 10 mM concentration in DMSO. Thereafter, the mixture was diluted to 100 uM by using DW and stored on ice.
# On the other hand, Thioflavin-T (Sigma-Aldrich) was dissolved to the concentration of 5 mM in 50 mM glycine buffer (pH 8.5). Then, the resultant solution was diluted to the concentration of 50 μM by using 50 mM glycine buffer (pH 8.5) and stored in the dark while light was blocked.
# (§1) 25 μL of the reaction solution in which the reaction was completed was added to each well of a 96-well fluorescence assay plate, and 75 μL of the Thioflavin-T solution prepared above was added to each well. After reacting for 5 minutes in the dark at room temperature, fluorescence values were measured at excitation 450 nm and emission 485 nm by using a multi-mode microplate reader.
# The fluorescence value of the group (control) treated with Aβ alone and aggregated for 72 hours was considered as 100%, and the measured fluorescence values were expressed as a relative value thereto, and results thereof are shown in FIG. 1 and FIG. 2.
# In addition, by performing the same test as described above for 20 μM of various compounds using 50 μM Aβ, the degree of Aβ aggregation was measured, and the result is expressed as a relative value for control (100%).
# T1 sequence (P05067 672-713): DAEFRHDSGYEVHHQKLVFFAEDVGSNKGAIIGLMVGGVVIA
row,Compound,Aggregation (%)
1,Cc1nc2n(c(=O)c1CCN1CCC(c3noc4cc(F)ccc34)CC1)CCCC2 [Risperidone],117.68%
2,CN1CCN(CC/C=C2/c3ccccc3Sc3ccc(S(=O)(=O)N(C)C)cc32)CC1 [Thiothixene],125.23%
3,CN1CCN(C2=Nc3cc(Cl)ccc3Nc3ccccc32)CC1 [Clozapine],99.14%
4,CCN1CCCC1CNC(=O)c1cc(S(=O)(=O)CC)c(N)cc1OC (stereo not drawn) [Amisulpride],96.29%
5,CC12CC3CC(C)(C1)CC(N)(C3)C2 [Mementine],95.84%

# Target: T1, Aβ1-42
# Assay: Aβ disaggregation test of rifamycin-based derivatives by Thioflavin T analysis
# Type: biochemical
# Settings: 50 μM compound, 50 μM Aβ1-42 aggregated 3 days, then 2 days of reaction
# Method: The compound was then used diluted with 6% DMSO (in DW).
# The Aβ solution was prepared by dissolving Aβ 1-42 monomers to the concentration of 10 mM in DMSO. Thereafter, the mixture was diluted to 100 μM by using DW and stored on ice.
# On the other hand, Thioflavin-T was dissolved to the concentration of 5 mM in 50 mM glycine buffer (pH 8.5). Then, the resultant solution was diluted to the concentration of 50 μM by using 50 mM glycine buffer (pH 8.5) and stored in the dark while light was blocked.
# The Aβ solution prepared in Example 3.1. was placed in 1.5 mL microcentrifuge tubes, each having 50 μM of the Aβ solution, and then reacted at 37° C. for 72 hours.
# Each 1.5 mL microcentrifuge tube was treated with 50 μM rifapentine-based derivatives, followed by reaction at 37° C. for 48 hours.
# as §1
# The fluorescence value of the group (control) treated with Aβ alone and aggregated for 72 hours by treating only Aβ was considered as 100%, and the measured fluorescence values were expressed as a relative value thereto, and results thereof are shown in FIG. 7.
row,Compound,Aβ disaggregation effect compared to the control
1,"CO[C@H]1/C=C/O[C@@]2(C)Oc3c(C)c(O)c4c(O)c(c5c(nc6cc(C)ccn65)c4c3C2=O)NC(=O)/C(C)=C\C=C\[C@H](C)[C@H](O)[C@@H](C)[C@@H](O)[C@@H](C)[C@H](OC(C)=O)[C@@H]1C (relative stereo) [rifaximin, [2S-(2R*,16Z,18E,20R*,21R*,22S*,23S*,24S*,25R*,26S*,27R*,22E)]-25-acetyloxy) -5,6,21,23-tetrahydroxy-27-methoxy-2,4,11,16,20,22,24,26-octamethyl-2,7-(epoxypentadeca [1,11,13] trienimino) benzofuro [4,5-e] pyrido [1,2-a] benzimidazole-1,15 (2H) -dione]",significant disaggregation did not occur
2,"CO[C@H]1/C=C/O[C@@]2(C)Oc3c(C)c(O)c4c(O)c(c(/C=N/N5CCN(C)CC5)c(O)c4c3C2=O)NC(=O)/C(C)=C\C=C\[C@H](C)[C@H](O)[C@@H](C)[C@@H](O)[C@@H](C)[C@H](OC(C)=O)[C@@H]1C [rifampicin, 5,6,9,17,19,21-hexahydroxy-23-methoxy-2,4,12,16,18,20,22-heptamethyl-8-[N-(4-methyl-1-piperazinyl) formimidoyl]-2,7-(epoxypentadeca [1,11,13]trienimino)-naphtho [2,1-b] furan-1,11 (2H) -dione 21-acetate]",about 50%
3,3-[[[4-(2-Methylpropyl)-1-piperazinyl]imino]methyl]rifamycin [rifamdin],about 50%
4,"CO[C@H]1/C=C/O[C@@]2(C)Oc3c(C)c(O)c4c(O)c(cc(OCC(=O)O)c4c3C2=O)NC(=O)/C(C)=C\C=C\[C@H](C)[C@H](O)[C@@H](C)[C@@H](O)[C@@H](C)[C@H](OC(C)=O)[C@@H]1C [rifamycin B, {[(2S,12Z,14E,16S,17S,18R,19R,20R,21S,22R,23S,24E)-21-(acetyloxy)-5,6,17,19-tetrahydroxy-23-methoxy-2,4,12,16,18,20,22-heptamethyl-1,11-dioxo-1,2-dihydro-2,7-(epoxypentadeca[1,11,13]trienoimino)naphtho[2,1-b]furan-9-yl]oxy}acetic acid]",significant disaggregation did not occur
5,"COC1C=COC2(C)Oc3c(C)c(O)c4c(O)c(c5c(c4c3C2=O)=NC2(CCN(CC(C)C)CC2)N=5)NC(=O)C(C)=CC=CC(C)C(O)C(C)C(O)C(C)C(OC(C)=O)C1C [ripabutin, (S,12E,14S,15R,16S,17R,18R,19R,20S,21S,22E,24Z)-6,16,18,20-tetrahydroxy-1′-isobutyl-14-methoxy-7,9,15,17,19,21,25-heptamethyl-spiro[9,4-(epoxypentadeca[1,11,13]trienimino)-2H-furo[2″,3″:7,8]naphth[1,2-dimidazole-2,4″-piperidine]-5,10,26-(3H,9H)-trione-16-acetate]",about 50%
6,"CO[C@H]1/C=C/O[C@@]2(C)Oc3c(C)c(O)c4c(c3C2=O)C(=O)C=C(NC(=O)/C(C)=C\C=C\[C@H](C)[C@H](O)[C@@H](C)[C@@H](O)[C@@H](C)[C@H](OC(C)=O)[C@@H]1C)C4=O [rifamycin S, 5,17,19,21-tetrahydroxy-23-methoxy-2,4,12,16,18,20,22-heptamethyl-2,7-(epoxypentadeca[1,11,13]trienimino)naphtho[2,1-b]furan-1,6,9,11(2H)-tetrone 21-acetate]",25%
7,"CO[C@H]1/C=C/O[C@@]2(C)Oc3c(C)c(O)c4c(O)c(cc(O)c4c3C2=O)NC(=O)/C(C)=C\C=C\[C@H](C)[C@H](O)[C@@H](C)[C@@H](O)[C@@H](C)[C@H](OC(C)=O)[C@@H]1C [rifamycin SV, 5,6,9,17,19,21-Hexahydroxy-23-methoxy-2,4,12,16,18,20,22-heptamethyl-2,7-(epoxypentadeca[1,11,13]trienimino)naphtho[2,1-b]furan-1,11(2H)-dione 21-acetate]",about 50%
